Test results published in PubChem BioAssay AID248 (DTP/NCI, 2004).
“And” between values parts separate entries of the source, which are not always exact repeats. Equal entries are not always repeated. Toxic doses and inconclusive results are not listed. Cut-off read from the data, not from the text of the source: active = T/C of 150% or more; inactive = T/C below 125%.

Tested on: L1210 leukemia ip in BDF1 mice, survival T/C
Experiment: NCI In Vivo Anticancer Drug Screen. Data for tumor model L1210 Leukemia (intraperitoneal) in B6D2F1 (BDF1) mice
Details: endpoint: mean survival time, higher = longer survival
How it was run: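 Transplanted-tumor mice were given test agent; controls received vehicle only. Survival readings from the two groups were divided (treated over control).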

[1] = dose: 100.0 mg/kg/injection, schedule: Q01DX001 (ip), vehicle: saline
[2] = dose: 200.0 mg/kg/injection, schedule: Q01DX001 (ip), vehicle: saline
[3] = dose: 400.0 mg/kg/injection, schedule: Q01DX001 (ip), vehicle: saline
[4] = dose: 50.0 mg/kg/injection, schedule: Q01DX001 (ip), vehicle: carboxymethylcellulose (CMC)
[5] = dose: 100.0 mg/kg/injection, schedule: Q01DX001 (ip), vehicle: carboxymethylcellulose (CMC)
[6] = dose: 100.0 mg/kg/injection, schedule: Q01DX009 (ip), vehicle: Klucel (hydroxypropylcellulose) (HPC)
[7] = dose: 200.0 mg/kg/injection, schedule: Q01DX009 (ip), vehicle: Klucel (hydroxypropylcellulose) (HPC)
[8] = dose: 400.0 mg/kg/injection, schedule: Q01DX009 (ip), vehicle: Klucel (hydroxypropylcellulose) (HPC)
[9] = dose: 100.0 mg/kg/injection, schedule: Q01DX001 (ip), vehicle: saline with Tween-80
[10] = dose: 200.0 mg/kg/injection, schedule: Q01DX001 (ip), vehicle: saline with Tween-80
[11] = dose: 400.0 mg/kg/injection, schedule: Q01DX001 (ip), vehicle: saline with Tween-80
[12] = dose: 100.0 mg/kg/injection, schedule: Q04DX003 (ip), vehicle: Klucel (hydroxypropylcellulose) (HPC)
[13] = dose: 200.0 mg/kg/injection, schedule: Q04DX003 (ip), vehicle: Klucel (hydroxypropylcellulose) (HPC)
[14] = dose: 400.0 mg/kg/injection, schedule: Q04DX003 (ip), vehicle: Klucel (hydroxypropylcellulose) (HPC)
[15] = dose: 25.0 mg/kg/injection, schedule: Q04DX002 (ip), vehicle: Klucel (hydroxypropylcellulose) (HPC)
[16] = dose: 50.0 mg/kg/injection, schedule: Q04DX002 (ip), vehicle: Klucel (hydroxypropylcellulose) (HPC)
[17] = dose: 50.0 mg/kg/injection, schedule: Q01DX001 (ip), vehicle: saline
[18] = dose: 100.0 mg/kg/injection, schedule: Q01DX009 (ip), vehicle: saline with Tween-80

Measured: T/C

Cc1ccc(S(=O)(=O)ON2C(=O)c3cccc4cc([N+](=O)[O-])cc(c34)C2=O)cc1
inactive: [1] 95 % of control | [2] 101 % of control | [3] 104 % of control

CC1(N2CCCC2)CCCCC1
inactive: [4] 94 % of control | [5] 99 % of control

O=C(O)c1cnc[nH]1
inactive: [6] 100 % of control | [7] 92 % of control | [8] 94 % of control

O=C(NCCCl)N(O)C12CC3CC(CC(C3)C1)C2
inactive: [9] 90 % of control | [10] 97 % of control | [11] 98 % of control

O=[N+]([O-])c1ccc(C=Nc2ccccc2CO)s1
inactive: [12] 103 % of control | [13] 104 % of control | [14] 93 % of control

O=[N+]([O-])C1C=NCCN=C1
inactive: dose: 100.0 mg/kg/injection, schedule: Q04DX013 (ip), vehicle: carboxymethylcellulose (CMC) 96 % of control | dose: 200.0 mg/kg/injection, schedule: Q04DX013 (ip), vehicle: carboxymethylcellulose (CMC) 94 % of control | dose: 400.0 mg/kg/injection, schedule: Q04DX013 (ip), vehicle: carboxymethylcellulose (CMC) 94 % of control

CCOC(=O)CC(C(C)=O)C(=O)OCC (configuration not stated)
inactive: [4] 100 % of control | [5] 100 % of control | dose: 200.0 mg/kg/injection, schedule: Q01DX001 (ip), vehicle: carboxymethylcellulose (CMC) 94 % of control | dose: 400.0 mg/kg/injection, schedule: Q01DX001 (ip), vehicle: carboxymethylcellulose (CMC) 100 % of control

CC([NH-])C[NH-].[Cl][Pd][Cl] (configuration not stated)
inactive: dose: 6.25 mg/kg/injection, schedule: Q04DX002 (ip), vehicle: Klucel (hydroxypropylcellulose) (HPC) 93 % of control | dose: 12.5 mg/kg/injection, schedule: Q04DX002 (ip), vehicle: Klucel (hydroxypropylcellulose) (HPC) 102 % of control and 93 % of control | dose: 12.5 mg/kg/injection, schedule: Q04DX003 (ip), vehicle: Klucel (hydroxypropylcellulose) (HPC) 96 % of control | [15] 90 % of control | dose: 25.0 mg/kg/injection, schedule: Q04DX003 (ip), vehicle: Klucel (hydroxypropylcellulose) (HPC) 94 % of control | [16] 90 % of control | dose: 50.0 mg/kg/injection, schedule: Q04DX003 (ip), vehicle: Klucel (hydroxypropylcellulose) (HPC) 91 % of control

O=C1CC2CCCCC2c2ccccc21 (configuration not stated)
inactive: dose: 12.5 mg/kg/injection, schedule: Q01DX001 (ip), vehicle: saline 114 % of control | dose: 25.0 mg/kg/injection, schedule: Q01DX001 (ip), vehicle: saline 102 % of control | [17] 100 % of control

CC1(C)CCc2cc(C(=O)O)ccc2O1
inactive: [17] 100 % of control | [1] 100 % of control | [2] 103 % of control | [3] 100 % of control

CN(C)c1ccc(/C=N\NC(=O)CCCC(=O)N/N=C/c2ccc(N(C)C)cc2Cl)c(Cl)c1
inactive: [17] 98 % of control | [1] 98 % of control | [2] 102 % of control | [3] 102 % of control

COc1ccccc1/C=C(\C#N)c1cccc2ccccc12
inactive: [15] 118 % of control | [16] 93 % of control | [6] 94 % of control | dose: 100.0 mg/kg/injection, schedule: Q04DX002 (ip), vehicle: Klucel (hydroxypropylcellulose) (HPC) 107 % of control | [7] 89 % of control | [8] 90 % of control

CCCCN(CCCC)CN(CCCC)CCCC
inactive: dose: 25.0 mg/kg/injection, schedule: Q01DX009 (ip), vehicle: saline with Tween-80 97 % of control | dose: 50.0 mg/kg/injection, schedule: Q01DX009 (ip), vehicle: saline with Tween-80 100 % of control | [18] 100 % of control | dose: 100.0 mg/kg/injection, schedule: Q04DX002 (ip), vehicle: saline 95 % of control | dose: 200.0 mg/kg/injection, schedule: Q04DX002 (ip), vehicle: saline 95 % of control

CNC(=S)N/N=C(\c1ccccc1)c1ccccn1
inactive: [9] 95 % of control | [18] 100 % of control | dose: 100.0 mg/kg/injection, schedule: Q04DX003 (ip), vehicle: saline with Tween-80 104 % of control | [10] 106 % of control | dose: 200.0 mg/kg/injection, schedule: Q01DX009 (ip), vehicle: saline with Tween-80 102 % of control | dose: 200.0 mg/kg/injection, schedule: Q04DX003 (ip), vehicle: saline with Tween-80 95 % of control | [11] 104 % of control | dose: 400.0 mg/kg/injection, schedule: Q01DX009 (ip), vehicle: saline with Tween-80 102 % of control | dose: 400.0 mg/kg/injection, schedule: Q04DX003 (ip), vehicle: saline with Tween-80 98 % of control

CC(C)CP(=O)(CC(C)C)CC(C)C
inactive: dose: 6.25 mg/kg/injection, schedule: Q04DX003 (ip), vehicle: saline with Tween-80 98 % of control

C[N+](C)(C)C1CC1
inactive: dose: 12.5 mg/kg/injection, schedule: Q01DX009 (ip), vehicle: saline 94 % of control | dose: 25.0 mg/kg/injection, schedule: Q01DX009 (ip), vehicle: saline 98 % of control | dose: 25.0 mg/kg/injection, schedule: Q04DX003 (ip), vehicle: saline 93 % of control | dose: 50.0 mg/kg/injection, schedule: Q01DX009 (ip), vehicle: saline 96 % of control and 102 % of control | dose: 50.0 mg/kg/injection, schedule: Q04DX003 (ip), vehicle: saline 103 % of control

COc1cc(C(=O)N2CCN(Cc3ccccc3)CC2)cc(OC)c1OC
inactive: [12] 93 % of control | [13] 107 % of control | [14] 93 % of control

Cc1cc2c(cc1C)C1(c3ccccc3)OC1(c1ccccc1)C2=O (configuration not stated)
inactive: [9] 95 % of control | [10] 88 % of control | [11] 92 % of control

CC1(C)SC2C(NC(=O)Cc3ccccc3)C(=O)N2C1C(=O)O (configuration not stated)
inactive: [17] 104 % of control | [1] 98 % of control and 107 % of control | dose: 100.0 mg/kg/injection, schedule: Q04DX003 (ip), vehicle: saline 101 % of control | [2] 96 % of control and 107 % of control | dose: 200.0 mg/kg/injection, schedule: Q04DX003 (ip), vehicle: saline 104 % of control | [3] 98 % of control | dose: 400.0 mg/kg/injection, schedule: Q04DX003 (ip), vehicle: saline 104 % of control

O=C1c2ccccc2C(=O)N1c1c2ccccc2cc2ccccc12
inactive: dose: 100.0 mg/kg/injection, schedule: Q04DX003 (ip), vehicle: saline sonified 98 % of control | dose: 200.0 mg/kg/injection, schedule: Q04DX003 (ip), vehicle: saline sonified 95 % of control | dose: 400.0 mg/kg/injection, schedule: Q04DX003 (ip), vehicle: saline sonified 95 % of control

O=COCC1CCC(COC=O)CC1 (configuration not stated)
inactive: dose: 222.0 mg/kg/injection, schedule: Q01DX Z (ip), vehicle: methylcellulose (MC) 94 % of control | dose: 333.0 mg/kg/injection, schedule: Q01DX Z (ip), vehicle: methylcellulose (MC) 94 % of control | dose: 500.0 mg/kg/injection, schedule: Q01DX Z (ip), vehicle: methylcellulose (MC) 105 % of control

NC(=O)NOCc1cscn1
inactive: [1] 95 % of control | [2] 97 % of control | [3] 97 % of control
